Structures are written as SMILES. Counter-ions that a name gives are not always drawn.

For the assay, the target named is T1, SF9 affinity purified rat FPT (Rattus norvegicus, UniProt Q02293+Q04631).
T1 construct: made in house; host or cells: Sf9 insect cells
Nature of the assay: PFT (FPT) inhibitory activity assay, radiolabeled farnesyl pyrophosphate and biotinyl peptide, streptavidin beads. As to conditions: HEPES buffer pH 7.4, 30° C., 30 minutes; read-out: FTase IC50. Format: biochemical. As for the experimental part:
The PFT or FPT inhibitory activity of compounds of the present invention were assayed in HEPES buffer (pH 7.4) containing 5 mM potassium phosphate and 20 μM ZnCl2. The solution also contained 5 mM DTT (dithiothreitol), 5 mM MgCl2, and 0.1% PEG 8000. Assays were performed in 96 well plates (Wallec) and employed solutions composed of varying concentrations of a compound of the present invention in 10% DMSO (dimethylsulfoxide). […] After incubation at 30° C. for 30 minutes, the reaction was terminated by diluting the reaction 2.5-fold with a stop buffer containing 1.5 M magnesium acetate, 0.2 M H3PO4, 0.5% BSA (bovine serum albumin), and strepavidin beads (Amersham) at a concentration of 1.3 mg/mL. […] The assay was also carried out without 5 mM potassium phosphate.
Take `CNC(=O)c1ccccc1SCc1c(O[C@H](Cn2ccnc2)c2ccccc2)ccc2c1CCCC2=O` [Compound 193, 2-{[(2-{[(1S)-2-(1H-Imidazol-1-yl)-1-phenylethyl]oxy}-5-oxo-5,6,7,8-tetrahydro-1-naphthalenyl)methyl]sulfanyl}-N-methylbenzamide]: the half-maximal inhibitory concentration (IC50) (commonly the concentration that inhibits the measured activity by half) is 5 nM.

As for `CNC(=O)c1ccc(S(=O)(=O)Cc2c(O[C@H](Cn3ccnc3)c3ccccc3)ccc3c2CCCC3=O)cc1` [Compound 189, 4-{[(2-{[(1S)-2-(1H-2-Imidazol-1-yl)-1-phenylethyl]oxy}-5-oxo-5,6,7,8-tetrahydro-1-naphthalenyl)methyl]sulfonyl}-N-methylbenzamide], the IC50 is 10 nM.

For `CC[C@H](C)CNC(=O)c1ccccc1SCc1c(O[C@H](Cn2ccnc2)c2ccccc2)ccc2c1CCCC2=O` [Compound 250, 2-{[(2-{[(1S)-2-(1H-Imidazol-1-yl)-1-phenylethyl]oxy}-5-oxo-5,6,7,8-tetrahydro-1-naphthalenyl)methyl]sulfanyl}-N-[(2S)-2-1-methylbutyl]benzamide], the concentration for half-maximal inhibition (IC50) is 0.2 nM.

For the compound `O=C1CCCc2c1ccc(O[C@H](Cn1ccnc1)c1ccccc1)c2NS(=O)(=O)c1ccccc1` [Compound 38, N-[2-((S)-2-Imidazol-1-yl-1-phenyl-ethoxy)-5-oxo-5,6,7,8-tetrahydro-naphthalen-1-yl]-benzenesulfonamide], the IC50 stood at 31 nM.

Take `O=C1CCCc2c1ccc(O[C@H](Cn1ccnc1)c1ccccc1)c2CNS(=O)(=O)c1cccc(Cl)c1` [Compound 42e, 3-Chloro-N-[2-((S)-2-imidazol-1-yl-1-phenyl-ethoxy)-5-oxo-5,6,7,8-tetrahydro-naphthalen-1-ylmethyl]-benzenesulfonamide; compound with trifluoro-acetic acid]: the half-inhibitory concentration (IC50) turned out to be 1.5 nM.

Take `O=C(NCc1ccco1)c1ccc(S(=O)(=O)Cc2c(O[C@H](Cn3ccnc3)c3ccccc3)ccc3c2CCCC3=O)cc1` [Compound 229, N-(2-Furylmethyl)-4-{[(2-{[(1S)-2-(1H-imidazol-1-yl)-1-phenylethyl]oxy}-5-oxo-5,6,7,8-tetrahydro-1-naphthalenyl)methyl]sulfonyl}benzamide]: the 50% inhibitory concentration (IC50) was 0.55 nM.

On to `O=C1CCCc2c1ccc(O[C@H](Cn1ccnc1)c1ccccc1)c2NC(=O)c1cccc2cccnc12` [Compound 40g, Quinoline-8-carboxylic acid [2-((S)-2-imidazol-1-yl-1-phenyl-ethoxy)-5-oxo-5,6,7,8-tetrahydro-naphthalen-1-yl]-amide], for which the half-inhibitory concentration (IC50) was determined as 0.8 nM.

Regarding `O=C1CCCc2c1ccc(O[C@H](Cn1ccnc1)c1ccccc1)c2CN1C(=O)c2ccccc2C1=O` [Compound 43, 2-{[2-((1S)-2-imidazolyl-1-phenylethoxy)-5-oxo-6,7,8-trihydronaphenyl]methyl}isoindoline-1,3-dione], the IC50 was 1.7 nM.

In the case of `COC(=O)CCc1c(O[C@H](Cn2ccnc2)c2ccccc2)ccc2c1CCCC2=O` [Compound 31, Methyl 3-[2-((1S)-2-imidazolyl-1-phenylethoxy)-5-oxo-6,7,8-trihydronaphthyl]propanoate], the half-maximal inhibitory concentration (IC50) was found to be 10 nM.

With `N#Cc1ccccc1NCc1c(O[C@H](Cn2ccnc2)c2ccccc2)ccc2c1CCCC2=O` [Compound 149, 2-{[2-((S)-2-Imidazol-1-yl-1-phenyl-ethoxy)-5-oxo-5,6,7,8-tetrahydro-napthalen-1-ylmethyl]-amino}-benzonitrile], the IC50 was found to be 3 nM.

For the compound `O=C1CCCc2c1ccc(S[C@H](Cn1ccnc1)c1ccccc1)c2CCc1ccccc1` [Compound 63], the IC50 stood at 0.2 nM.

For the compound `O=C(NC1CCCC1)c1ccccc1S(=O)(=O)Cc1c(O[C@H](Cn2ccnc2)c2ccccc2)ccc2c1CCCC2=O` [Compound 219, N-Cyclopentyl-2-{[(2-{[(1S)-2-(1H-imidazol-1-yl)-1-phenylethyl]oxy}-5-oxo-5,6,7,8-tetrahydro-1-naphthalenyl)methyl]sulfonyl}benzamide], the IC50 came to 0.47 nM.

In the case of `O=C1CCCc2c1ccc(O[C@H](Cn1ccnc1)c1ccccc1)c2COc1ccc(F)cc1` [Compound 103, 6-((1S)-2-Imidazolyl-1-phenylethoxy)-5-[(4-fluorophenoxy)methyl]-2,3,4-trihydronaphthalen-1-one], the half-inhibitory concentration (IC50) turned out to be 5 nM.

As to `COC(=O)c1cccc(SCc2c(O[C@H](Cn3ccnc3)c3ccccc3)ccc3c2CCCC3=O)c1` [Compound 158, Methyl 3-{[(2-{[(1S)-2-(1H-Imidazol-1-yl)-1-phenylethyl]oxy}-5-oxo-5,6,7,8-tetrahydro-1-naphthalenyl)methyl]sulfanyl}benzoate], the IC50 amounted to 4 nM.

On to `CN(C)CCNC(=O)c1ccccc1S(=O)(=O)Cc1c(O[C@H](Cn2ccnc2)c2ccccc2)ccc2c1CCCC2=O` [Compound 180, N-[2-(Dimethylamino)ethyl]-2-{[(2-{[(1S)-2-(1H-imidazol-1-yl)-1-phenylethyl]oxy}-5-oxo-5,6,7,8-tetrahydro-1-naphthalenyl)methyl]sulfonyl}benzamide], for which the half-inhibitory concentration (IC50) came out at 6 nM.

On to `O=C1CCCc2c1ccc(O[C@H](Cn1ccnc1)c1ccccc1)c2CSCc1ccc(Cl)c(Cl)c1` [Compound 10c, 5-(3,4-Dichloro-benzylsulfanylmethyl)-6-((1S)-2-imidazol-1-yl-1-phenyl-ethoxy)-3,4-dihydro-2H-naphthalen-1-one], for which the 50% inhibitory concentration (IC50) was 5.3 nM.

On to `O=C1CCCc2c1ccc(O[C@H](Cn1ccnc1)c1ccccc1)c2CS(=O)(=O)c1ccccn1` [Compound 10, 6-(1S)-2-Imidazolyl-1-phenylethoxy)-5-[(2-pyridylsulfonyl)methyl]-2,3,4-trihydronaphthalen-1-one hydrochloride], for which the IC50 came out at 0.3 nM.

As to `CCCOCc1c(O[C@H](Cn2ccnc2)c2ccccc2)ccc2c1CCCC2=O` [Compound 19b, 6-((S)-2-Imidazol-1-yl-1-phenyl-ethoxy)-5-propoxymethyl-3,4-dihydro-2H-naphthalen-1-one], the half-maximal inhibitory concentration (IC50) came to 3.6 nM.

Regarding `CC(C)(C)c1cccc(OCc2c(O[C@H](Cn3ccnc3)c3ccccc3)ccc3c2CCCC3=O)c1` [Compound 67], the concentration for half-maximal inhibition (IC50) was found to be 1 nM.

On to `O=C(NC1CCCC1)c1ccccc1SCc1c(O[C@H](Cn2ccnc2)c2ccccc2)ccc2c1CCCC2=O` [Compound 222, N-Cyclopentyl-2-{[(2-{[(1S)-2-(1H-imidazol-1-yl)-1-phenylethyl]oxy}-5-oxo-5,6,7,8-tetrahydro-1-naphthalenyl)methyl]sulfanyl}benzamide], for which the IC50 came out at 0.2 nM.

In the case of `C[C@H](O)CNC(=O)c1cccc(S(=O)(=O)Cc2c(O[C@H](Cn3ccnc3)c3ccccc3)ccc3c2CCCC3=O)c1` [Compound 200, N-[(2S)-2-Hydroxypropyl]-3-{[(2-{[(1S)-2-(1H-imidazol-1-yl)-1-phenylethyl]oxy}-5-oxo-5,6,7,8-tetrahydro-1-naphthalenyl)methyl]sulfonyl}benzamide], the half-inhibitory concentration (IC50) was found to be 0.24 nM.

On to `C=CCOCc1c(O[C@H](Cn2ccnc2)c2ccccc2)ccc2c1CCCC2=O` [Compound 18, 6-((1S)-2-imidazolyl-1-phenylethoxy)-5-(prop-2-enyloxymethyl)-2,3,4-trihydronaphthalen-1-one], for which the half-inhibitory concentration (IC50) is 8 nM.

For `COCCNC(=O)c1ccc(SCc2c(O[C@H](Cn3ccnc3)c3ccccc3)ccc3c2CCCC3=O)cc1` [Compound 261], the IC50 is 0.2 nM.

With `CC[C@H](CO)NC(=O)c1ccccc1SCc1c(O[C@H](Cn2ccnc2)c2ccccc2)ccc2c1CCCC2=O` [Compound 244, N-[(1R)-1-(Hydroxymethyl)propyl]-2-{[(2-{[(1S)-2-(1H-imidazol-1-yl)-1-phenylethyl]oxy}-5-oxo-5,6,7,8-tetrahydro-1-naphthalenyl)methyl]sulfanyl}benzamide], the IC50 amounted to 0.2 nM.

On to `O=C1CCCc2c1ccc(O[C@H](Cn1ccnc1)c1ccccc1)c2CCc1cc[n+]([O-])cc1` [Compound 26a], for which the IC50 was 5 nM.

`O=C1CCCc2c1ccc(O[C@H](Cn1ccnc1)c1ccccc1)c2COc1cccc2[nH]ccc12` [Compound 76, 6-((1S)-2-Imidazolyl-1-phenylethoxy)-5-(indol-4-yloxymethyl)-2,3,4-trihydronaphthalen-1-one]: the IC50 stood at 1 nM.

Turning to `CNC(=O)c1ccccc1S(=O)(=O)Cc1c(O[C@H](Cn2ccnc2)c2ccccc2)ccc2c1CCCC2=O` [Compound 164, 2-{[(2-{[(1S)-2-(1H-Imidazol-1-yl)-1-phenylethyl]oxy}-5-oxo-5,6,7,8-tetrahydro-1-naphthalenyl)methyl]sulfonyl)-N-methylbenzamide], the IC50 amounted to 5.3 nM.

For the compound `O=C(NCCO)c1cccc(S(=O)(=O)Cc2c(O[C@H](Cn3ccnc3)c3ccccc3)ccc3c2CCCC3=O)c1` [Compound 176, N-(2-Hydroxyethyl)-3-{[(2-{[(1S)-2-(1H-imidazol-1-yl)-1-phenylethyl]oxy}-5-oxo-5,6,7,8-tetrahydro-1-naphthalenyl)methyl]sulfonyl}benzamide], the IC50 was determined as 7 nM.

On to `O=C(NCCO)c1ccccc1SCc1c(O[C@H](Cn2ccnc2)c2ccccc2)ccc2c1CCCC2=O` [Compound 173, N-(2-Hydroxyethyl)-2-{[(2-{[(1S)-2-(1H-imidazol-1-yl)-1-phenylethyl]oxy}-5-oxo-5,6,7,8-tetrahydro-1-naphthalenyl)methyl]sulfanyl}benzamide], for which the half-inhibitory concentration (IC50) was determined as 4 nM.

For `O=C1CCCc2c1ccc(O[C@H](Cn1ccnc1)c1ccccc1)c2CNS(=O)(=O)c1ccc2ccccc2c1` [Compound 42f, Naphthalene-2-sulfonic acid [2-((S)-2-imidazol-1-yl-1-phenyl-ethoxy)-5-oxo-5,6,7,8-tetrahydro-naphthalen-1-ylmethyl]-amide; compound with trifluoro-acetic acid], the IC50 came to 4 nM.

These data come from US6943183B2 (Pfizer Inc, priority 2000, dated 2005).
